Results as given in patent US8722671B2, “Isoquinoline derivatives” (Sanofi, priority 2005, dated 2014).

Each compound was assayed against T1, ROCKII or ROKα (Homo sapiens, UniProt O75116) (assay: Determination of Rho kinase inhibition (33P-ATP Streptavidin Flash Plate assay)). Details: ATP 40 μM, activity denoted as pIC50 class.
T1 construct: purchased Upstate 14-451
T1 sequence (O75116 11-552 limits assumed): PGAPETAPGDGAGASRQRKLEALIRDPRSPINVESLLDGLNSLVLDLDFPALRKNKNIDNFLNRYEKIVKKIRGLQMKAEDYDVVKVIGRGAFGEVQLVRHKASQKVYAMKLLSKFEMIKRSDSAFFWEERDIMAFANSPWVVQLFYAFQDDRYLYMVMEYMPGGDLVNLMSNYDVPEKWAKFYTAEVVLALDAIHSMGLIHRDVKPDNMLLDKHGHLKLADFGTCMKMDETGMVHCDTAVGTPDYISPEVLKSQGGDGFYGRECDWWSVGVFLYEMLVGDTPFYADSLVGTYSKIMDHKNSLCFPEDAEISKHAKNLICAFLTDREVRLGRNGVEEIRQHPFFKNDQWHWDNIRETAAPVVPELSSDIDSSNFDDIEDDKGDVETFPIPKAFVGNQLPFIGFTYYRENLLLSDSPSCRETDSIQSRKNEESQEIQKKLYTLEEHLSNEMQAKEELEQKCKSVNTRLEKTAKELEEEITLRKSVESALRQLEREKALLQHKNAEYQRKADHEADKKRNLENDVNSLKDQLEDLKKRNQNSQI
Type: biochemical
Protocol: Determination of Rho Kinase Inhibition
To measure Rho-kinase inhibition, IC50 values were determined according to the following protocol:
Buffer: 25 mM Tris pH7.5; 0.02% BSA; 5% Glycerol; 0.008% Triton X100; 2% DMSO, 1 mM DTT; 1 mM MgCl2; 0.5 μCi/well γ^33P ATP
Enzyme: ROCKII or ROKα) (Upstate, Catalog #14-451 Lot #24880U) 0.1 ng/μl
Final concentration of ATP in reaction mixture 40 μM
Biotinylated substrate, diluted to 0.25 μM with buffer described above (without ATP)
• 1. 10 μl Tris buffer (±Inhibitor) • 2. Add 30 μl of enzyme solution • 3. Start the reaction with 30 μL of mix substrate/ATP/ATP33 • 4. Incubate for 20 min at room temperature • 5. Stop reaction with 30 μL of 50 mM EDTA • 6. Transfer 50 μL of stopped solution to Streptavidin Flash Plate plus, Perkin Elmer, SMP 103A • 7. Incubate for 30 min at RT • 8. Wash 4 times with 300 μl of PBS/0.1% Tween 20 • 9. Radioactivity in the well was determined
`COc1ccc2cc(CN3CCC(Oc4ccc5cnccc5c4)CC3)ccc2c1.O=C(O)C(F)(F)F` [Compound 120] was tested, and the IC50 was “++++ (6.0≦pIC50)”.
`Cl.Clc1cc(OC2CCNCC2)cc2ccncc12` [Compound 269, 8-Chloro-6-(Piperidin-4-yloxy)-isoquinoline hydrochloride] was tested, and the IC50 was “++++ (6.0≦pIC50)”.
In the case of `COc1cc(Nc2cc3cc(OC4CCNCC4)ccc3cn2)cc(OC)c1OC` [Compound 228], the IC50 is reported as “++++ (6.0≦pIC50)”.
`CCc1cncc2ccc(OC3CCNCC3)cc12.Cl` [Compound 266, 4-Ethyl-6-(piperidin-4-yloxy)-isoquinoline] was tested, and the IC50 was “+++ (5.0≦pIC50<6.0)”.
For `O=C(O)C(F)(F)F.c1cc2cc(OC3CCCNC3)ccc2cn1` (stereo not drawn) [Compound 145], the IC50 was “+++ (5.0≦pIC50<6.0)”.
In the case of `Clc1cc2cnccc2c(Cl)c1OC1CCNCC1` [Compound 378, 5,7-Dichloro-6-(piperidin-4-yloxy)-isoquinoline], the IC50 is reported as “++++ (6.0≦pIC50)”.
`COc1cccc(Nc2cc3c(C4CC4)c(OC4CCNCC4)ccc3cn2)c1.Cl` [Compound 265] was tested, and the IC50 was “+++ (5.0≦pIC50<6.0)”.
With `c1ccc(Cc2c(OC3CCNCC3)ccc3cnccc23)cc1` [Compound 29, 5-Benzyl-6-(piperidin-4-yloxy)-isoquinoline] the IC50 was “+++ (5.0≦pIC50<6.0)”.
In the case of `OCc1cccc(-c2c(OC3CCNCC3)ccc3cnccc23)c1` [Compound 67], the IC50 is reported as “+++ (5.0≦pIC50<6.0)”.
`Cl.Ic1c(OC2CCNCC2)ccc2cnccc12` [Compound 44] was tested, and the IC50 was “++++ (6.0≦pIC50)”.
In the case of `c1ccc(-c2cc3cnccc3cc2OC2CCNCC2)cc1` [Compound 81], the IC50 is reported as “++++ (6.0≦pIC50)”.
`Cl.c1cc2c(cc1Nc1cc3cc(OC4CCNCC4)ccc3cn1)OCO2` [Compound 261] was tested, and the IC50 was “++++ (6.0≦pIC50)”.
In the case of `O=C(O)C(F)(F)F.c1ccc2oc(-c3c(OC4CCNCC4)ccc4cnccc34)cc2c1` [Compound 59], the IC50 is reported as “++++ (6.0≦pIC50)”.
For `Cl.Clc1cncc2ccc(OC3CCNCC3)cc12` [Compound 156, 4-Chloro-6-(piperidin-4-yloxy)-isoquinoline hydrochloride], the IC50 was “++++ (6.0≦pIC50)”.
With `O=C(O)C(F)(F)F.c1ccc(C(CN2CCC(Oc3ccc4cnccc4c3)CC2)c2ccccc2)cc1` [Compound 100] the IC50 was “+++ (5.0≦pIC50<6.0)”.
In the case of `Brc1c(OC2CCNCC2)ccc2cnccc12.Cl` [Compound 41], the IC50 is reported as “++++ (6.0≦pIC50)”.
`Cc1cc(OC2CCNCC2)c(C)c2ccncc12.Cl` [Compound 133] was tested, and the IC50 was “++++ (6.0≦pIC50)”.
With `CN1CCCC(COc2ccc3cnccc3c2Br)C1.O=C(O)C(F)(F)F` (stereo not drawn) [Compound 138] the IC50 was “++++ (6.0≦pIC50)”.
For `FC(F)(F)CCN1CCC(Oc2ccc3cnccc3c2)CC1.O=C(O)C(F)(F)F` [Compound 111], the IC50 was “+++ (5.0≦pIC50<6.0)”.
`COc1ccc(-c2c(OC3CCNCC3)ccc3cnccc23)cc1N` [Compound 72] was tested, and the IC50 was “++++ (6.0≦pIC50)”.
In the case of `Cc1c(OC2CCNCC2)cc2ccncc2c1C.Cl` [Compound 134], the IC50 is reported as “+++ (5.0≦pIC50<6.0)”.
